According to paper PMC10971832, “New Phenol Derivatives from the Haima Cold Seep-Derived Fungus Aspergillus subversicolor CYH-17” (Marine Drugs, 2024):
Values after ≈ are worked out from the molar mass of the structure shown.

How the values were obtained:
[1] = DPPH radical scavenging assay (antioxidant activity); settings: Table S33, positive control ascorbic acid
Description: The procedures of the DPPH radical scavenging test were the same as Zhong. Ascorbic acid was used as the positive control.

Bacillus subtilis BS01 = experiment: Antibacterial assay (MIC), B. subtilis; type: cell-based; settings: Table S32, positive control ciprofloxacin
Description: (§1) The bacteria Vibrio alginolyticus XSBZ14, Enterococcus faecalis ATCC 29212, Acinetobacter baumannii ATCC 19606, Escherichia coli ATCC 25922, Bacillus subtilis BS01, Klebsiella pneumoniae ATCC 13883, Exiguobacterium profundum Staphylococcus aureus ATCC 29213 and MRSA 107352 were used to measure antibacterial activity. The procedures of the antibacterial test were the same as Zhang. Ciprofloxacin was used as the positive control.

[2] = test system: Exiguobacterium profundum; experiment: Antibacterial assay (MIC), E. profundum; type: cell-based; settings: Table S32, positive control ciprofloxacin
Description: as §1

[3] = test system: Enterococcus faecalis ATCC 29212; experiment: Antibacterial assay (MIC), E. faecalis; type: cell-based; settings: ATCC29212, Table S32, positive control ciprofloxacin
Description: as §1

[4] = test system: Acinetobacter baumannii ATCC 19606; experiment: Antibacterial assay (MIC), A. baumannii; type: cell-based; settings: ATCC19606, Table S32, positive control ciprofloxacin
Description: as §1

[5] = test system: Staphylococcus aureus ATCC 29213; experiment: Antibacterial assay (MIC), S. aureus; type: cell-based; settings: ATCC29213, Table S32, positive control ciprofloxacin
Description: as §1

MRSA 107352 = experiment: Antibacterial assay (MIC), MRSA; type: cell-based; settings: Staphylococcus aureus, Table S32, positive control ciprofloxacin
Description: as §1

[6] = test system: six bacteria (B. subtilis, E. profundum, E. faecalis, S. aureus, MRSA, A. baumannii); experiment: Antibacterial assay, summary over the sensitive bacteria; type: cell-based
Description: as §1

| Compound | IC50 [1] [µM] | MIC (Bacillus subtilis BS01) [µM] | MIC [2] [µM] | MIC [3] [µM] | MIC [4] [µM] | MIC [5] [µM] | MIC (MRSA 107352) [µM] | inhibitory activity against bacteria (in words) ([6]; five Gram-positive bacteria (B. subtilis, E. profundum, E. faecalis, S. aureus and MRSA) and one Gram-negative bacterium (A. baumannii)) | MIC ([6]; range over six inhibited bacteria) [µM] |
| --- | --- | --- | --- | --- | --- | --- | --- | --- | --- |
| O=C1O[C@H]([C@@H](O)CO)C(O)=C1O [Ascorbic acid, reference compound] | 16.7 ± 0.7 |  |  |  |  |  |  |  |  |
| CCC(C)C=C(C)C=CC(=O)Cc1cc(O)c(C)c(O)c1C(=O)O (stereo not shown) [Compound 1, subversin A] |  | > 200 | 100 (≈ 33.2 µg/mL) | > 200 | > 200 | > 200 | > 200 |  |  |
| Cc1cc(O)cc2oc3cc(O)cc(C)c3c12 [Compound 10, 3,7-dihydroxy-1,9-dimethyldibenzofuran] | 48.9 ± 9.8 | 0.1 (≈ 0.0228 µg/mL) | 25 (≈ 5.71 µg/mL) | 25 (≈ 5.71 µg/mL) | 50 (≈ 11.4 µg/mL) | 25 (≈ 5.71 µg/mL) | 12.5 (≈ 2.85 µg/mL) | displayed inhibitory activity | 0.1 to 50 (≈ 0.0228 to 11.4 µg/mL) |
| COc1c(O)cc(C)cc1Oc1cc(C)cc(O)c1 [Compound 11, 2-methoxyl cordyol C] |  | > 200 | 100 (≈ 26 µg/mL) | > 200 | > 200 | > 200 | > 200 |  |  |
| O=C(O)c1cn(C2CC2)c2cc(N3CCNCC3)c(F)cc2c1=O [ciprofloxacin, Ciprofloxacin, reference compound] |  | 0.03 (≈ 0.00994 µg/mL) | 0.2 (≈ 0.0663 µg/mL) | 0.8 (≈ 0.265 µg/mL) | 0.4 (≈ 0.133 µg/mL) | 0.8 (≈ 0.265 µg/mL) | 1.6 (≈ 0.53 µg/mL) |  |  |
